# In ChEMBL document CHEMBL1201862, “PubChem BioAssay data set” (2004):
#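 Interpolation was linear, between the two tested concentrations surrounding the appropriate level; five concentrations were tested over 48 hours in 96-well plates. Here, GI50 denotes the concentration required for 50% inhibition of growth.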 Activity calls are given as the source filed them. Rule as the data show it: active = GI50 up to about 1.1 µM and inactive = higher. Where a SMILES comes first, the peptide text is derived from it. [ ]: non-standard residue; d: D form. The star is where a group is joined. ξ: configuration not given here. ξF = NC(Cc1ccccc1)C(=O)O; Cbz = O=C(OCc1ccccc1)*; Aib = CC(C)(N)C(=O)O
# How the values were obtained:
# Test in all cases: NCI anticancer screen, dose series, 48 h
# [1] = system: OVCAR-5
# [2] = system: COLO 205
# [3] = system: MDA-MB-435
# [4] = system: SW-620
# [5] = system: OVCAR-3
# [6] = system: TK-10
# [7] = system: UO-31
# [8] = system: M14
# [9] = system: SF-295
# [10] = system: K562
# [11] = system: U-251
# [12] = system: NCI/ADR-RES
# [13] = system: T47D
# [14] = system: HCT-116
# [15] = system: SNB-19
# [16] = system: CAKI-1
# [17] = system: EKVX
# [18] = system: SK-MEL-5
# [19] = system: UACC-257
# [20] = system: MDA-N
# [21] = system: ACHN
# [22] = system: MDA-MB-231
# [23] = system: A498
# [24] = system: MOLT-4
# [25] = system: SK-MEL-28
# [26] = system: HT-29
# [27] = system: SK-OV-3
# [28] = system: LOX IMVI
# [29] = system: CCRF-CEM
# [30] = system: SF-268
# [31] = system: IGROV-1
# [32] = system: HCC 2998
# [33] = system: HOP-62
# [34] = system: RPMI-8226
# [35] = system: HCT-15
# [36] = system: PC-3
# [37] = system: OVCAR-8
# [38] = system: HL-60
# [39] = system: A549
# [40] = system: Malme-3M
# [41] = system: OVCAR-4
# [42] = system: MCF7
# [43] = system: NCI-H460
# [44] = system: UACC-62
# [45] = system: NCI-H522
# [46] = system: DU-145
# [47] = system: 786-0
# [48] = system: RXF 393
# [49] = system: SR
# [50] = system: SNB-75
# [51] = system: NCI-H23
# [52] = system: SK-MEL-2
# [53] = system: SN12C
# [54] = system: SF-539
# [55] = system: NCI-H226
# [56] = system: HOP-92
# [57] = system: KM12
# [58] = system: Hs-578T
smiles,measurement,setting,value
COC(=O)C(C)(C)NC(=O)C(Cc1ccccc1)NC(=O)C(C)(C)NC(=O)OCc1ccccc1 (stereo not given) (Cbz-[Aib]-[ξF]-[Aib]-OMe),GI50,[1],> 100 µM (inactive)
same,GI50,[2],> 100 µM (inactive)
same,GI50,[3],> 100 µM (inactive)
same,GI50,[4],> 100 µM (inactive)
same,GI50,[5],> 100 µM (inactive)
same,GI50,[6],> 100 µM (inactive)
same,GI50,[7],> 100 µM (inactive)
same,GI50,[8],> 100 µM (inactive)
same,GI50,[9],> 100 µM (inactive)
same,GI50,[10],> 100 µM (inactive)
same,GI50,[11],> 100 µM (inactive)
same,GI50,[12],> 100 µM (inactive)
same,GI50,[13],> 100 µM (inactive)
same,GI50,[14],> 100 µM (inactive)
same,GI50,[15],> 100 µM (inactive)
same,GI50,[16],> 100 µM (inactive)
same,GI50,[17],> 100 µM (inactive)
same,GI50,[18],> 100 µM (inactive)
same,GI50,[19],> 100 µM (inactive)
same,GI50,[20],> 100 µM (inactive)
same,GI50,[21],> 100 µM (inactive)
same,GI50,[22],> 100 µM (inactive)
same,GI50,[23],24.3 µM (inactive)
same,GI50,[24],> 100 µM (inactive)
same,GI50,[25],> 100 µM (inactive)
same,GI50,[26],> 100 µM (inactive)
same,GI50,[27],> 100 µM (inactive)
same,GI50,[28],> 100 µM (inactive)
same,GI50,[29],> 100 µM (inactive)
same,GI50,[30],> 100 µM (inactive)
same,GI50,[31],> 100 µM (inactive)
same,GI50,[32],> 100 µM (inactive)
same,GI50,[33],> 100 µM (inactive)
same,GI50,[34],> 100 µM (inactive)
same,GI50,[35],> 100 µM
same,GI50,[36],> 100 µM (inactive)
same,GI50,[37],> 100 µM (inactive)
same,GI50,[38],> 100 µM (inactive)
same,GI50,[39],> 100 µM (inactive)
same,GI50,[40],> 100 µM (inactive)
same,GI50,[41],> 100 µM (inactive)
same,GI50,[42],> 100 µM (inactive)
same,GI50,[43],> 100 µM (inactive)
same,GI50,[44],> 100 µM (inactive)
same,GI50,[45],> 100 µM (inactive)
same,GI50,[46],> 100 µM (inactive)
COc1ccc(-c2coc3cc(O)cc(O)c3c2=O)cc1 [BIOCHANIN],GI50,[47],> 10 µM (inactive)
same,GI50,[1],> 10 µM (inactive)
same,GI50,[48],> 10 µM (inactive)
same,GI50,[2],> 10 µM (inactive)
same,GI50,[3],> 10 µM (inactive)
same,GI50,[4],> 10 µM (inactive)
same,GI50,[8],> 10 µM (inactive)
same,GI50,[10],> 10 µM (inactive)
same,GI50,[49],> 10 µM (inactive)
same,GI50,[11],> 10 µM (inactive)
same,GI50,[12],> 10 µM (inactive)
same,GI50,[13],> 10 µM (inactive)
same,GI50,[16],> 10 µM (inactive)
same,GI50,[18],> 10 µM (inactive)
same,GI50,[21],> 10 µM (inactive)
same,GI50,[24],> 10 µM (inactive)
same,GI50,[25],> 10 µM (inactive)
same,GI50,[27],> 10 µM (inactive)
same,GI50,[50],> 10 µM (inactive)
same,GI50,[29],> 10 µM (inactive)
same,GI50,[30],> 10 µM (inactive)
same,GI50,[31],> 10 µM (inactive)
same,GI50,[33],> 10 µM (inactive)
same,GI50,[34],> 10 µM (inactive)
same,GI50,[38],> 10 µM (inactive)
same,GI50,[39],> 10 µM (inactive)
same,GI50,[40],> 10 µM (inactive)
same,GI50,[41],> 10 µM (inactive)
same,GI50,[42],> 10 µM (inactive)
same,GI50,[51],> 10 µM (inactive)
same,GI50,[43],> 10 µM (inactive)
same,GI50,[44],> 10 µM (inactive)
same,GI50,[52],> 10 µM (inactive)
O=c1c(O)c(-c2ccc(O)cc2O)oc2cc(O)cc(O)c12 [MORIN],GI50,[47],> 100 µM (inactive)
same,GI50,[1],> 100 µM (inactive)
same,GI50,[53],> 100 µM (inactive)
same,GI50,[2],> 100 µM (inactive)
same,GI50,[3],> 100 µM (inactive)
same,GI50,[4],> 100 µM (inactive)
same,GI50,[5],> 100 µM (inactive)
same,GI50,[6],33.4 µM (inactive)
same,GI50,[7],> 100 µM (inactive)
same,GI50,[8],> 100 µM (inactive)
same,GI50,[9],> 100 µM (inactive)
same,GI50,[10],> 100 µM (inactive)
same,GI50,[11],> 100 µM (inactive)
same,GI50,[12],> 100 µM (inactive)
same,GI50,[13],> 100 µM (inactive)
same,GI50,[14],86.1 µM (inactive)
same,GI50,[15],> 100 µM (inactive)
same,GI50,[16],> 100 µM (inactive)
same,GI50,[17],30.3 µM (inactive)
same,GI50,[54],> 100 µM (inactive)
same,GI50,[18],> 100 µM (inactive)
same,GI50,[19],> 100 µM (inactive)
same,GI50,[20],> 100 µM (inactive)
same,GI50,[21],> 100 µM (inactive)
same,GI50,[22],> 100 µM (inactive)
same,GI50,[55],> 100 µM (inactive)
same,GI50,[25],> 100 µM (inactive)
same,GI50,[26],> 100 µM (inactive)
same,GI50,[50],> 100 µM (inactive)
same,GI50,[28],> 100 µM (inactive)
same,GI50,[29],> 100 µM (inactive)
same,GI50,[30],> 100 µM (inactive)
same,GI50,[31],> 100 µM (inactive)
same,GI50,[32],> 100 µM (inactive)
same,GI50,[33],> 100 µM (inactive)
same,GI50,[35],> 100 µM
same,GI50,[56],> 100 µM (inactive)
same,GI50,[36],> 100 µM (inactive)
same,GI50,[37],> 100 µM (inactive)
same,GI50,[38],> 100 µM (inactive)
same,GI50,[39],> 100 µM (inactive)
same,GI50,[40],> 100 µM (inactive)
same,GI50,[57],> 100 µM (inactive)
same,GI50,[41],> 100 µM (inactive)
same,GI50,[42],> 100 µM (inactive)
same,GI50,[51],> 100 µM (inactive)
same,GI50,[43],> 100 µM (inactive)
same,GI50,[52],> 100 µM (inactive)
same,GI50,[58],> 100 µM (inactive)
same,GI50,[45],> 10 µM (inactive)
same,GI50,[46],> 100 µM (inactive)
